According to patent US20090186915A1, “Compositions and methods for treatment of glioblastoma, gliosarcoma, NSCLC, and head and neck cancer” (Unibioscreen S. A., priority 2006, published 2009):

Experiments:
[1] = tested on: PC-3; experiment: Apoptosis by Annexin V flow cytometry, PC-3; format: cell-based, human
Method: We used flow cytometry (according to the protocol found in Mijatovic et al. Neoplasia 2006) to determine the percentages of PC-3 and DU-145 positive cells for both Annexin V and propidium iodide and we observed that a maximum of 10% only of PC-3 or DU-145 cells underwent apoptotic processes following a treatment with 10 μM of the compound produced according to example 2 or example 7.
The determination of the percentage of cells undergoing apoptosis was performed using an Annexin V-FITC Apoptosis Detection Kit (Sigma) following the manufacturer's instructions. Each sample was evaluated in triplicate.

[2] = tested on: nine human cancer cell lines; experiment: MTT colorimetric assay, mean of nine cell lines; format: cell-based; details: mean over nine human cancer cell lines, read-out: mean antiproliferative activity IC50
Method: The overall growth of human cancer cell lines was determined by means of the calorimetric MTT (3-[4,5-dimethylthiazol-2-yl]-diphenyl tetrazolium bromide; Sigma) assay, as detailed previously.
UNBS3157 and UNBS5162 display weak antiproliferative activity in vitro.

[3] = tested on: CFC-GEMM; experiment: HALO hematotoxicity assay, mouse CFC-GEMM; format: cell-based; details: 5 days culture, iATP
Method: Investigation of the hematotoxic potential of UNBS5162 was undertaken by HemoGenix (Colorado Springs, Colo.). The effects of UNBS5162 on stem and progenitor cell populations from murine and human bone marrow were assessed using HALO (Hematopoietic/Hematotoxicity Assay through Luminescence Output) technology. Stem and hematopoietic progenitor cell populations were isolated from mouse and human bone marrow samples, plated at a concentration of 1.0×10^4 cells/well and cultured for 5 and 7 days, respectively, in the presence of growth factors and increasing concentrations of UNBS5162 ranging from 0.5 nM to 50 μM. The proliferative or growth potential of cell populations was determined from intracellular ATP (iATP) concentrations and a luciferin/luciferase bioluminescence signal detection system. All samples were assayed in eight replicates. The results are presented as estimated inhibitory concentration (IC) values.

[4] = tested on: MXT-HI mammary tumor; experiment: Syngeneic MXT-HI mammary tumor s.c., with or without irradiation; details: for Mean tumor size: UNBS5162 i.v. (5i × 3w) 10 mg/kg, alone or with 10 gray; for Number of mice dead or sacrificed: 11 mice per group
Method: The MXT-HI models used in our laboratory involve subcutaneously injecting MXT-HI tumor fragments into the flanks of B6D2F1 mice.
After the adaptation period, animals were inoculated subcutaneously with MXT-HI tumor. Briefly, “bank animals” were sacrificed and MXT-HI tumors were isolated from the animals, kept in saline solution and minced into 1 mm^3 pieces. These pieces (one/animal) were randomly s.c. inoculated into the right flanks of mice by means of a trocar.
UNBS5162 was dosed intravenously in accordance with UNBS procedure #002. The dosing volume was fixed at 200 μL/mouse. Group 1: Control (lactic acid vehicle) (5i/week×3 weeks) Group 2: UNBS5162 (10 mg/kg, 5i/week×3 weeks) Group 3: Irradiated (10 gray, 1 irradiation) Group 4: Irradiated (10 gray, 1 irradiation)+UNBS5162 (10 mg/kg, 5i/week×3 weeks) For group 4, the first administration of UNBS5162 was performed at the morning of the day of irradiation (5 Dec. 2007).
Briefly, animals were anaesthetized, using a syringe, with 150 μl of Rompun/Ketalar mixture (1 part Rompun/1 part Ketalar/4.5 parts saline) injected intraperitoneally. After approximately 5 minutes and after verification that animals were completely asleep, an irradiation simulation was performed first to focalise irradiation in the tumor centre and to avoid to irradiate healthy tissue. Simulation was performed individually on each animal to adapt irradiation to tumor size. In a second time, the tumor was irradiated with a dose of 10 gray (5 MV photons from a linear accelerator at a source skin distance of 1 m).
For technical reasons, irradiation was not performed the same day for all animals. Tumor irradiation was performed on day 14 post-graft for group 4 (irradiated+UNBS5162) and on day 16 post-graft for group 3 (irradiated alone).
Tumor growths were recorded 3 times weekly on Monday, Wednesday and Friday.
Statistical comparisons between the control group and the treated groups were performed with the non-parametric Mann-Whitney U-test. Survival analysis was done either by calculating the % T/C-value or with Kaplan-Meier analysis and Log-rank statistics. All statistical analyses were carried out using Statistica software (Statsoft, Tulsa, Okla.). The cut-off level for statistical significance was set at a p-value of p<0.05.
The T/C-values were calculated by dividing the day of death or sacrifice of the median mouse in a treated group T by the day of death or sacrifice of the median mouse in the control group C, the latter said to be 100%.

[5] = tested on: platelets, red and white blood cells; experiment: Compound-induced hematotoxicity and tolerance in mice; format: in vivo; details: 20 mg/kg intra-venous, three times a week for five weeks
Method: We have determined the compound-induced potential hematotoxicity of the compound produced according to example 2 or example 7 on platelets, red and white blood cells in comparison of the effect of amonafide on platelets, red and white blood cells. The effect of amonafide was evaluated at 10 mg/kg and 20 mg/kg, by the intra-peritoneal administration to mice. The administration schedule was five times a week for three consecutive weeks. The effect of the compound produced according to example 2 or example 7 was evaluated at 20 mg/kg, by the intra-venous administration to mice. The administration schedule was three times a week (on Mondays, Wednesdays and Fridays) for five consecutive weeks. The animals were sacrificed 3 days after the last injection. There were 10 mice per group. FIG. 1 illustrates results of this assay for compound-induced hematotoxicity on platelets.

[6] = tested on: CXCL1, CXCL2, CXCL3, CXCL5, CXCL6, and CXCL8 chemokines; experiment: CXCL chemokine expression (microarray and ELISA), PC-3; format: cell-based, human; details: 1 μM five times a week
Method: Two different Quantikine ELISA kits (R&D Systems, Abingdon, UK) for the quantification of human CXCL1 and CXCL8 (IL-8) were used in this study in accordance with the manufacturer's instructions. Cell culture supernatants were collected after different treatments and periods, with multiple aliquots taken and stored at −20° C. until analysis.

[7] = tested on: E2F1; experiment: E2F1 expression (Western blot, RT-PCR), PC-3; format: cell-based, human; details: 10 μM
Method: Reverse transcription reactions were carried out in a thermal cycler (Thermocycler; Westburg, Leusden, The Netherlands). The purification of the cDNAs produced was undertaken using the High Pure PCR Product Purification Kit (Roche Diagnostics, Mannheim, Germany) in accordance with the manufacturer's instructions. Quantitative PCR reactions were performed with 50 ng of purified cDNA in a LightCycler thermocycler instrument (Roche Diagnostics) using LCFastart DNA Master SYBR Green 1 (Roche Diagnostics). After amplification, data analysis was carried out by means of the “Fit points” algorithm of the LightCycler quantification software. A standard curve enabled cDNA quantification of samples to be effected. […]
Cell extracts were prepared by the lysis of subconfluent PC-3 cells directly in boiling lysis buffer (10 mM Tris, pH 7.4, 1 mM Na3O4V, 1% SDS, pH 7.4). Approximately 40 μg of extracted proteins (evaluated by the bicinchoninic acid protein assay; Pierce, Perbio Science, Erembodegem, Belgium) was then loaded onto a denaturing polyacrylamide gel. The proteins submitted to Western blot analyses were detected using primary antibodies provided by: 1) CST Technologies, Bioké, Leiden, The Netherlands: Rb (1:2000) and p-Rb (1:1000); 2) BD Transduction Laboratories, Erembodegem, Belgium: E2F1 (1:400); and 3) AbCam, Cambridge, UK: tubulin (1:3000, used as a loading control). […]

[8] = tested on: DU-145; experiment: Quantitative videomicroscopy, DU-145; format: cell-based, human; details: 1 μM
Method: Use was made of computer-assisted phase-contrast microscopy (quantitative videomicroscopy) in the attempt to elucidate an overall picture of UNBS5162's mechanism of action. […] In addition, 10 μM UNBS5162 caused a marked enlargement in PC-3 cells by the end of the 6-day treatment period compared with the start of the experiment.

[9] = tested on: Rb, pRb; experiment: Western blot of Rb and p-Rb, PC-3; format: cell-based, human; details: 10 μM, 48 and 72 hours
Method: Cell extracts were prepared by the lysis of subconfluent PC-3 cells directly in boiling lysis buffer (10 mM Tris, pH 7.4, 1 mM Na3O4V, 1% SDS, pH 7.4). Approximately 40 μg of extracted proteins (evaluated by the bicinchoninic acid protein assay; Pierce, Perbio Science, Erembodegem, Belgium) was then loaded onto a denaturing polyacrylamide gel. The proteins submitted to Western blot analyses were detected using primary antibodies provided by: 1) CST Technologies, Bioké, Leiden, The Netherlands: Rb (1:2000) and p-Rb (1:1000); 2) BD Transduction Laboratories, Erembodegem, Belgium: E2F1 (1:400); and 3) AbCam, Cambridge, UK: tubulin (1:3000, used as a loading control). The antibody for LC-3 protein (1:500) was kindly provided by Dr. Yasuko Kondo. Western blot analyses were performed as detailed previously.

[10] = UNBS5162 10 mg/kg i.v. 5i×3w, alone or with 1×10 gray

CN(C)CCN1C(=O)c2cccc3cc(NC(N)=O)cc(c23)C1=O [UNBS5162, N-{2-[2-(dimethylamino)ethyl]-1,3-dioxo-2,3-dihydro-1H-benzo[de]isoquinolin-5-yl}urea]
cells undergoing apoptotic processes (Annexin V and propidium iodide positive) ([1]; 10 μM): ≤ 10% | induction of real (early) apoptosis ([1]; flow cytometry): does not induce real (early) apoptosis | IC50 [2]: 17.9 µM | IC50 ([3]; 120 h): 6.22 µM | IC90 ([3]; 120 h): 8.96 µM | IC75 [3]: 7.48 µM | Mean tumor size ([4]; Day 14): 178.52 mm^2 | Mean tumor size ([4]; Day 16): 250.08 mm^2 | Mean tumor size ([4]; Day 19): 414.11 mm^2 | Mean tumor size ([4]; Day 21): 423.71 mm^2 | Mean tumor size ([4]; Day 23): 481.56 mm^2 | Mean tumor size ([4]; Day 26): 619.21 mm^2 | effect on tumor area [4, 10]: no relevant effects | survival of MXT-HI-bearing mice [4, 10]: No prolongation of survival | Number of mice dead or sacrificed ([4]; day 19 post graft): 1 | Number of mice dead or sacrificed ([4]; day 21 post graft): 2 | Number of mice dead or sacrificed ([4]; day 23 post graft): 3 | Number of mice dead or sacrificed ([4]; day 26 post graft): 4 | Number of mice dead or sacrificed ([4]; day 28 post graft): 1 | tolerance of chronic administrations [5]: tolerated 15 chronic administrations | expression of proangiogenic CXCL chemokines (mRNA and protein) [6]: dramatically decreased | E2F1 expression at protein and mRNA levels [7]: dramatic decrease in E2F1 expression | cell dynamics (videomicroscopy) [8]: induced no detectable changes | Rb protein expression [9]: completely abolished Rb protein expression
